One data set addresses USP1/UAF1 (Homo sapiens (Human), UniProt O94782). Nature of the data set: Deubiquitination assay for USP1/UAF1 activity (ubiquitin-rhodamine 110). As to conditions: 0.05 nM USP1/UAF1, 150 nM ubiquitin-rhodamine. Format: biochemical. As for the experimental part:
Certain Compounds of the Disclosure were assessed for USP1/UAF1 activity in a Ubiquitin Rhodamine assay modified from those described previously.
Deubiquitinase activity was measured using ubiquitin-rhodamine 110 as a substrate. Cleavage of the amide bond between rhodamine and the c-terminal glycine of ubiquitin yields an increase in fluorescence signal. The assay was conducted in 20 ul total volume of assay buffer (50 mM Tris-HCl, pH 7.8, 0.5 mM EDTA, 0.01% Bovine Serum Albumin, 1 mM DTT, 0.01% Tween-20), and 0.05 nM USP1/UAF1 enzyme.
Compounds, dissolved in DMSO were tested in dose response format, beginning at 10 uM.
Compounds depicted below were added to enzyme/assay buffer mix and incubated 10 min.
Data for all assay formats was calculated as percent inhibition compared with control wells. […] IC50 values were calculated using the standard four parameter curve fitting algorithm in either Prism GraphPad (La Jolla, Calif.) software, or Collaborative Drug Discovery (Burlingame, Calif.) CDD Vault.

A short description of data set [1]: Liver microsomal stability, human liver microsomes. As to conditions: 1 μM compound, NADPH, read-out: t1/2 (min) in HLM. Format: in vitro ADME. The method, boiled down:
(§1)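 Compound (1 μM final) was incubated with prewarmed human or rat liver microsomes (1 mg/mL in 100 mM phosphate master mix) plus NADPH; aliquots at 0.5–30 minutes were quenched in cold acetonitrile and quantified by LC-MS/MS. Half-life came from the ln(% remaining) versus time slope, converted to CLint (μL/min/mg prot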
On the technique in general: Liver microsomes are a subcellular fraction often used to study metabolism.

Data set [2] is described as follows: Liver microsomal stability, rat liver microsomes. Format: in vitro ADME. As to conditions: 1 μM compound, NADPH, read-out: t1/2 (min) in RLM. The method, boiled down:
as §1

Data set [3] is described as follows: ADME solubility determination at pH 2.0 and pH 7.4. Format: physicochemical. To be noted: aqueous buffer, thermodynamic from solid, LC-MS/MS. The method, boiled down:
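Dried residues of 10 mM DMSO stocks were shaken in PBS pH 7.4 or pH 2.0 for 24 hours at 25° C. and 1,100 rpm. After centrifugation, supernatants were quantified by LC-MS/MS against a standard of known concentration, applying a dilution factor.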

[4] abbreviates: PBS pH 2.0, shaken at 25° C. for 24 hours, read-out: Solubility at pH 2.0.
Where [5] appears, read: PBS pH 7.4, shaken at 25° C. for 24 hours, read-out: Solubility at pH 7.4.

Consider 30 compounds from patent publication US11485736B2 (KSQ Therapeutics, Inc., priority 2018, dated 2022).

Where two headings read alike, the source gives them in different places.

USP1/UAF1, sequence (O94782 whole entry): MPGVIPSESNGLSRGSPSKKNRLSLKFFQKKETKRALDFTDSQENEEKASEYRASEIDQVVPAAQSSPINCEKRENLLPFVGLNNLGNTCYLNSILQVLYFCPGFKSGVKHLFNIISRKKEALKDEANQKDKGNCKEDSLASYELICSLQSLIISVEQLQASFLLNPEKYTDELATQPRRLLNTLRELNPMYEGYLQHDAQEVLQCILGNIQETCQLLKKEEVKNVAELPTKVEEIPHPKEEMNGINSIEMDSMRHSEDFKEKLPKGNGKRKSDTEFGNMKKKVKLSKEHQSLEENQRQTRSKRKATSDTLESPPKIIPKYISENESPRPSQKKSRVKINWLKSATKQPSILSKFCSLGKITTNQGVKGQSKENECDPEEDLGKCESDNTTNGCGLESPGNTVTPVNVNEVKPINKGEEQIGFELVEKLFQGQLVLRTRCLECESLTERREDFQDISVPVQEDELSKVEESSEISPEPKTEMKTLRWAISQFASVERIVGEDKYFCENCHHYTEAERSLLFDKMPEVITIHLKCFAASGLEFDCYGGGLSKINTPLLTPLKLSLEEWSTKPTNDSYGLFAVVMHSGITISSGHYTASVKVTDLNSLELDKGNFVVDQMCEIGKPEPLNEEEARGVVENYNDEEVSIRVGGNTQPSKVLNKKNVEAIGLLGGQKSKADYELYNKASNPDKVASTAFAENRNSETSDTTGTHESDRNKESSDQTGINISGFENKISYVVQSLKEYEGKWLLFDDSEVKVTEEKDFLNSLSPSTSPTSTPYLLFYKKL
USP1/UAF1, sequence (Q8TAF3 whole entry partner): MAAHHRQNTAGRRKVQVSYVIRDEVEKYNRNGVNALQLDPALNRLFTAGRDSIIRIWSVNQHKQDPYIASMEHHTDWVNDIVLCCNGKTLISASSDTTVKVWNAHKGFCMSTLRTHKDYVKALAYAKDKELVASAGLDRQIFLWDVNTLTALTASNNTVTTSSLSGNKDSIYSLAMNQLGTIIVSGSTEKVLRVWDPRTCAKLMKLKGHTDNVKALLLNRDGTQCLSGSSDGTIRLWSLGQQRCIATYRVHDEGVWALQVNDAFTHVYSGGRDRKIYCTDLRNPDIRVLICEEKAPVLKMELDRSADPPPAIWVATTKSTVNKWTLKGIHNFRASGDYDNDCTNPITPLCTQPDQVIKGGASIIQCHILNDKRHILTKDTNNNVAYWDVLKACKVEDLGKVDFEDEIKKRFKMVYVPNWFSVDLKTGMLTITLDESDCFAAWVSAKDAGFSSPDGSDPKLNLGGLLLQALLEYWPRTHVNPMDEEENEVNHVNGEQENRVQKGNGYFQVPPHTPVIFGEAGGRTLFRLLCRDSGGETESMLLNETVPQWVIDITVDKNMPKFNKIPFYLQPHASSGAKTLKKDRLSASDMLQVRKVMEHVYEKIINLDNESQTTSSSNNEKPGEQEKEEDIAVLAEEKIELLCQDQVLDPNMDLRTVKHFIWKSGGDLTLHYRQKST

As to `CCS(=O)(=O)c1ccccc1-c1ncc2cnn(Cc3ccc(-c4nc(C(F)(F)F)cn4C)cc3)c2n1` [drawing 709], the half-maximal inhibitory concentration (IC50) (commonly the concentration that inhibits the measured activity by half) on USP1/UAF1 (Table 2) lay in the range of 100 to 200 nM.

On USP1/UAF1 (Table 2), `Cn1cc(C(F)(F)F)nc1-c1ccc(Cn2ncc3cnc(-c4ccccc4S(C)(=O)=O)nc32)cc1` [drawing 707] came in with a half-inhibitory concentration (IC50) of 100 to 200 nM.

For the compound `COc1ncnc(C2CC2)c1-c1ncc2nc(C3CCC3)n(Cc3ccc(-n4nc(C(F)(F)F)cc4C)cc3)c2n1` [drawing 823], the IC50 at USP1/UAF1 (Table 4) was 10 to 100 nM.

The compound `COc1ncnc(C2CC2)c1-c1ncc2cnn(Cc3ccc(-c4nc(C(F)(F)F)cn4C4CN(C)C4)cc3)c2n1` [drawing 775] returned an IC50 at USP1/UAF1 (Table 3) of 10 to 100 nM.

On USP1/UAF1 (Table 4), `COc1ncnc(C2CC2)c1-c1ncc2c(OC)nn([C@@H](C)c3ccc(-c4nc(C(F)(F)F)c(Br)n4C)cc3)c2n1` [drawing 802] returned an IC50 of 10 to 100 nM.

`CCc1nc2cnc(-c3c(OC)ncnc3C3CC3)nc2n1Cc1ccc(-n2nc(C(F)(F)F)cc2C)cc1` [drawing 825] registered an IC50 at USP1/UAF1 (Table 4) of 10 to 100 nM.

As for `COc1cccc(C)c1-c1ncc2cnn(Cc3ccc(-c4nc(C(F)(F)F)cn4C)cc3)c2n1` [drawing 717], the IC50 on USP1/UAF1 (Table 2) lay within 10 to 100 nM.

On to `Cn1cc(C(F)(F)F)nc1-c1ccc(Cn2ncc3cnc(-c4c(C5CC5)ncnc4N4CCCC4)nc32)cc1`, for which, at USP1/UAF1 (Table 3), the IC50 was > 200 nM.

Consider `Cn1cc(C(F)(F)F)nc1-c1ccc(Cn2ncc3cnc(-c4c(OC5CCOC5)ncnc4C4CC4)nc32)cc1` (stereo not drawn), for which, on USP1/UAF1 (Table 3), the IC50 is 100 to 200 nM.

As to `COc1ncnc(C2CC2)c1-c1ncc2cnn(Cc3ccc(-c4nc(C(F)(F)F)cn4CC(=O)N(C)C)cc3)c2n1`, the half-maximal inhibitory concentration (IC50) on USP1/UAF1 (Table 3) was > 200 nM.

Consider `COc1ncnc(C2CC2)c1-c1ncc2cnn(Cc3ccc(-c4nc(C(F)F)nn4C)cc3)c2n1`, for which the IC50 against USP1/UAF1 (Table 3) is > 200 nM.

With `CSc1cccc(C)c1-c1ncc2cnn(Cc3ccc(-c4nc(C(F)(F)F)cn4C)cc3)c2n1` [drawing 722], the IC50 against USP1/UAF1 (Table 2) is 10 to 100 nM.

`COc1ncnc(C(C)(C)F)c1-c1ncc2cnn(Cc3ccc(-c4nc(C(F)(F)F)cn4C)cc3)c2n1` [drawing 772] gave an IC50 at USP1/UAF1 (Table 3) of 10 to 100 nM.

Consider `COc1cnccc1-c1ncc2cnn(Cc3ccc(-c4nc(C(F)(F)F)cn4C)cc3)c2n1`, for which the IC50 at USP1/UAF1 (Table 2) is > 200 nM.

Consider `COc1ncnc(C2CC2)c1-c1ncc2cnn([C@H]3CCc4cc(-c5nc(C(F)(F)F)cn5C(C)C)ccc43)c2n1` [Example 173, (S)-6-(4-cyclopropyl-6-methoxypyrimidin-5-yl)-1-(5-(1-isopropyl-4-(trifluoromethyl)-1H-imidazol-2-yl)-2,3-dihydro-1H-inden-1-yl)-1H-pyrazolo[3,4-d]pyrimidine], for which the half-life at 1 μM in data set [1] and in data set [2] was > 25 min each time. The solubility at 24 h in data set [3] (setting [4]) and in data set [3] (setting [5]) was < 10 µM in each case.

`COc1ncnc(C2CC2)c1-c1ncc2c(OC)nn(C(C)c3ccc(-c4nc(C(F)(F)F)cn4CCF)cc3)c2n1` (stereo not drawn) [Example 177]: the half-life at 1 μM in data set [1] and in data set [2] was > 25 min throughout. For the same compound, the solubility at 24 h in data set [3] (setting [4]) and in data set [3] (setting [5]) was < 10 µM each time.

Consider `CCn1cc(C(F)(F)F)nc1-c1ccc(Cn2nc(OC3CCC3)c3cnc(-c4c(OC)ncnc4C4CC4)nc32)cc1` [Example 184], for which the half-life at 1 μM in data set [1] and in data set [2] was < 25 min each time. Also, the solubility at 24 h in data set [3] (setting [4]) and in data set [3] (setting [5]) was < 10 µM throughout.

For `CCOc1ncnc(C2CC2)c1-c1ncc2c(OCC)nn(Cc3ccc(-c4nc(C(F)(F)F)cn4CC)cc3)c2n1` [Example 183], the half-life at 1 μM in data set [1] and in data set [2] was < 25 min each time. In addition, the solubility at 24 h in data set [3] (setting [4]) and in data set [3] (setting [5]) was < 10 µM each time.

In the case of `COc1ncnc(C2CC2)c1-c1ncc2cnn(Cc3ccc(-c4nc(C(F)(F)F)cn4CC(F)F)cc3)c2n1` [Example 138], the half-life at 1 μM in data set [1] and in data set [2] was > 25 min in each case. Further, the solubility at 24 h in data set [3] (setting [4]) and in data set [3] (setting [5]) was > 10 µM in each case.

Regarding `COc1ncnc(C2CC2)c1-c1ncc2cnn(Cc3ccc(-c4nc(C(F)(F)F)cn4C4CCOC4)cc3)c2n1` (stereo not drawn) [Example 146], the half-life at 1 μM in data set [1] and in data set [2] was < 25 min throughout. Further, the solubility at 24 h in data set [3] (setting [4]) and in data set [3] (setting [5]) was > 10 µM each time.

In the case of `COc1ncnc(C2CC2)c1-c1ncc2cnn(Cc3ccc(-n4nc(C(F)(F)F)cc4C#N)cc3)c2n1` [Example 71], the half-life at 1 μM in data set [1] and in data set [2] was > 25 min throughout. The solubility at 24 h in data set [3] (setting [4]) and in data set [3] (setting [5]) was < 10 µM in each case.

Consider `COc1cnn(C2CC2)c1-c1ncc2cnn(Cc3ccc(-c4nc(C(F)(F)F)cn4C(C)C)cc3)c2n1` [Example 83], for which the half-life at 1 μM in data set [1] and in data set [2] was < 25 min in each case. The solubility – broadly, how much of the substance goes into solution per volume – at 24 h was > 10 µM in data set [3] (setting [4]) and < 10 µM in data set [3] (setting [5]).

For `COc1ncnc(C2CC2)c1-c1ncc2cnn(Cc3ccc(-c4nc(C(F)(F)F)cn4CCF)cc3)c2n1` [Example 137], the half-life at 1 μM in data set [1] and in data set [2] was > 25 min each time. The solubility at 24 h in data set [3] (setting [4]) and in data set [3] (setting [5]) was > 10 µM in each case.

For `[2H]C([2H])([2H])C([2H])(n1cc(C(F)(F)F)nc1-c1ccc(Cn2ncc3cnc(-c4c(OC)ncnc4C4CC4)nc32)cc1)C([2H])([2H])[2H]` [Example 140], the half-life at 1 μM in data set [1] and in data set [2] was > 25 min in each case. The solubility at 24 h in data set [3] (setting [4]) and in data set [3] (setting [5]) was < 10 µM in each case.

As to `COc1ncnc(C2CC2)c1-c1ncc2cnn(Cc3ccc(-c4cn(C(C)C)c(C(F)(F)F)n4)cc3)c2n1` [Example 34], the half-life at 1 μM in data set [1] and in data set [2] was > 25 min in each case. For the same compound, the solubility at 24 h in data set [3] (setting [4]) and in data set [3] (setting [5]) was < 10 µM throughout.

Turning to `COc1ncnc(C2CC2)c1-c1ncc2cnn(Cc3ccc(-c4nc(C(F)(F)F)cn4C4CC4)cc3)c2n1` [Example 154, 1-(4-(1-Cyclopropyl-4-(trifluoromethyl)-1H-imidazol-2-yl)benzyl)-6-(4-cyclopropyl-6-methoxypyrimidin-5-yl)-1H-pyrazolo[3,4-d]pyrimidine], the half-life at 1 μM in data set [1] and in data set [2] was > 25 min each time. Further, the solubility at 24 h in data set [3] (setting [4]) and in data set [3] (setting [5]) was < 10 µM throughout.

Consider `Cc1ncnc(C(C)C)c1-c1ncc2cnn(Cc3ccc(-n4nc(C(F)(F)F)cc4C)cc3)c2n1` [Example 45], for which the half-life at 1 μM in data set [1] and in data set [2] was < 25 min each time. Also, the solubility at 24 h in data set [3] (phosphate buffered saline, PBS pH 2.0, shaken at 25° C. for 24 hours, read-out: Solubility at pH 2.0) is < 10 µM; in data set [3] (phosphate buffered saline, PBS pH 7.4, shaken at 25° C. for 24 hours, read-out: Solubility at pH 7.4) it was < 10 µM.

In the case of `COc1ncnc(C2CC2)c1-c1ncc2cnn(Cc3ccc(-c4nc(C(F)(F)F)cn4C(C)C)c(F)c3)c2n1` [Example 19], the half-life at 1 μM in data set [1] and in data set [2] was > 25 min in each case. In addition, the solubility at 24 h in data set [3] (setting [4]) and in data set [3] (setting [5]) was > 10 µM in each case.

For the compound `Cc1cc(C(F)(F)F)nn1-c1ccc(Cn2ncc3cnc(-c4cccnc4C#N)nc32)cc1` [Example 49], the half-life at 1 μM in data set [1] and in data set [2] was > 25 min throughout. The solubility at 24 h in data set [3] (setting [4]) and in data set [3] (setting [5]) was < 10 µM in each case.

In the case of `COc1ncnc(C2(C)CC2)c1-c1ncc2cnn(Cc3ccc(-c4nc(C(F)(F)F)cn4C(C)C)cc3)c2n1` [Example 107], the half-life at 1 μM in data set [1] and in data set [2] was > 25 min in each case. Also, the solubility at 24 h in data set [3] (setting [4]) and in data set [3] (setting [5]) was > 10 µM each time.
